Reference: US20020098477A1, “METHODS FOR SCREENING NUCLEAR TRANSCRIPTION FACTORS FOR THE ABILITY TO MODULATE AN ESTROGEN RESPONSE” (priority 1997, published 2002)

Legend:
AP-1 response element = assay: Coll73-LUC collagenase reporter gene assay in HeLa cells transfected with ER and GR; assay type: cell-based, human; conditions: for AP-1 activation at dose used: TNF-α 10 ng/ml, data not shown
From the text: Coll73-LUC and Coll60-CAT have been previously described (Webb et al. (1995) Mol. Endo., 9: 443-456; Lopez et al. (1993) Mol. Cell Biol., 13: 3042-3049). Coll73-LUC consists of −73 to +63 base pairs of the collagenase promoter upstream of the Luciferase reporter gene. Coll517-CAT and Coll517mAP-1-CAT each contain −517 to +63 of the collagenase promoter (Webb et al. (1995) Mol. Endo., 9: 443-456).
Coll517mAP-1-CAT contains three point mutations in the consensus AP-1 response element (TGAGTCA mutated to GTACTCA). ColALuc contains the collagenase AP-1 response element upstream of the minimal drosophila alcohol dehydrogenase promoter (Starr et al., (1996) Genes & Dev., 10: 1271-1283). The ER expression vectors have been previously described: PHE0 (Green et al. (1986) Nature, 320: 134-139), PHEG0 (Tora et al. (1989) EMBO J. 8: 1981-1986), HE11 (Kumar et al. (1986) EMBO J., 5: 2231-2236), and HE15 (Kumar et al. (1987) Cell, 51: 941-951). PHE0 contains a point mutation (Gly400Val). PHEG0 is the wild type ER. PHE0 has reduced affinity for estrogens which allows for studies in cell culture without inadvertent activation. The protein coding regions of the ER plasmids were cloned into the multiple cloning site of the pSG5 expression vector. pRSVhGR (McEwan et al. (1993) Mol. Cell. Biol., 13: 399-407) consists of a cDNA encoding the human GR coding region inserted into an expression vector driven by the Rous sarcoma virus promoter. The PR-A (PhPR-60) and PR-B (hPR65) plasmids were derived from T47D cDNA and genomic DNA (Law et al (1987) Proc. Natl. Acad. Sci., USA, 84: 2877-2881; Wei et al. (1988) Mol. Endo., 2: 62-72) and cloned into an expression vector derived from pLEN (Kushner et al. (1990) Mol. Endocrinol. 4: 1465-1473). The human c-Jun (Turner et al. (1989) Science, 243: 1689-1694)) and rat c-Fos (Cohen et al. (1989) Genes & Dev., 3: 173-184)), have been previously described. The beta-actin-hCG construct has been previously described (Lopez et al. (1993) Mol. Cell. Biol., 13: 3042-3049). The pJ3-LacZ plasmid is pBR322-based and contains an SV40 promoter which activates LacZ.
All cells were maintained in DME medium without phenol red. […]
(§1) Cells were transfected by electroporation as previously described (Webb et al. (1995) Mol. Endo., 9: 443-456). […] The efficiency of transfection was monitored by co-transfection with either a (hCG reporter driven by an actin promoter (Lopez et al. (1993) Mol. Cell. Biol., 13: 3042-3049) or by co-transfection with pJ3LACZ. CAT or luciferase activity was then corrected by dividing by hCG levels or β-galactosidase activity. Five micrograms of collagenase reporter plasmid, and 1 μg of GR expression vector were used in all experiments unless otherwise indicated. […]

PR-B = assay: ColALuc reporter assay in HeLa cells transfected with ER, PR-B and c-Jun; assay type: cell-based, human
Description: (§2) (FIG. 8A) HeLa cells were transfected with ColALuc (5 μg), ER (1 μg), PR-A or PR-B (1 μg), and c-Jun (3 μg). Data are from four separate transfections from three experiments for PR-A and from two transfections from two experiments for PR-B. Columns represent the average fold induction. (FIG. 8B) CV-1 cells were transfected with ColALuc (5 μg), ER (HE0, 0.5 μg), PR-A (1 μg) and c-Jun (3 μg). Data is from one experiment. Columns represent the average of two treatment points. Similar experiments have been repeated 3 times or less. (FIGS. 8A and 8B) Cells were treated with steroids immediately after transfection and harvested 40 hrs later. Error bars represent standard deviation.
(§3) Coll517mAP-1-CAT contains three point mutations in the consensus AP-1 response element (TGAGTCA mutated to GTACTCA). […]
as §1

PR-A [1] = assay: ColALuc reporter assay in CV-1 cells transfected with ER, PR-A and c-Jun; assay type: cell-based, monkey
Description: as §2, §3, §1

PR-A [2] = conditions: HeLa, 10^−7 M
Description: (FIG. 8A) HeLa cells were transfected with ColALuc (5 μg), ER (1 μg), PR-A or PR-B (1 μg), and c-Jun (3 μg). Data are from four separate transfections from three experiments for PR-A and from two transfections from two experiments for PR-B. Columns represent the average fold induction. […] Similar experiments have been repeated 3 times or less. (FIGS. 8A and 8B) Cells were treated with steroids immediately after transfection and harvested 40 hrs later. Error bars represent standard deviation.
All cells were maintained in DME medium without phenol red. The medium was supplemented by serum (Sigma) which was tested for low estrogenic activity prior to use. […] In these experiments cells were treated with media containing charcoal-treated serum the night prior to transfection.

Question: TNF-α was tested. Which “AP-1 activation at dose used” value (AP-1 response element; PMA 10^−7 M) did it give?
Answer: maximal AP-1 activation

Question: Which “tamoxifen effect on transcription at Coll73” value (AP-1 response element; tamoxifen 5×10^−6 M, HE0, GR 1 μg) does the source give for `CC/C(=C(\c1ccccc1)c1ccc(OCCN(C)C)cc1)c1ccccc1` [tamoxifen] here?
Answer: activation

Question: Which “activity of AP-1 site, single steroid” value (PR-B; 10^−7 M) does the source give for `CCC(=O)[C@@]1(C)CC[C@H]2[C@@H]3CCC4=CC(=O)CCC4=C3CC[C@@]21C` [R5020] here?
Answer: inhibited the basal activity

Question: And the “progestin inhibition on treatment with both steroids” value (PR-B; estradiol + progestin)?
Answer: loss of RU5020 inhibition

Question: And the “progestin inhibition of estradiol with increased amounts of c-Jun” value (PR-A [1]; CV-1, PR-A, increasing c-Jun)?
Answer: maintained

Question: What about the “effect on the estradiol response” value (PR-A [1]; CV-1, transfected PR-A) of the same compound?
Answer: inhibited the estradiol response

Question: What about the “activity of AP-1 site, single steroid” value (PR-A [2]) of the same compound?
Answer: inhibited the basal activity

Question: Which results are given for `CCCCCCCCCCCCCC(=O)O[C@@H]1[C@@H](C)[C@@]2(O)[C@@H](C=C(CO)C[C@]3(O)C(=O)C(C)=C[C@@H]23)[C@@H]2C(C)(C)[C@]12OC(C)=O` [PMA]?
Answer: AP-1 activation at dose used (AP-1 response element; PMA 10^−7 M): maximal AP-1 activation; transcriptional activity in the absence of steroids (AP-1 response element; PMA 10^−7 M, ER 5 μg, GR 1 μg): ten fold stimulation
